Source: US9403833B2, “Carboxamide derivatives” (Novartis AG, priority 2014, dated 2016)

The compounds below were run against Smurf-1 (Homo sapiens (Human), UniProt Q9HCE7) (assay: HECT E3 ligase autoubiquitinylation TR-FRET assay (Smurf-1)). Settings: 8-point dose-response, 3 nM to 10 uM, 45 min incubation.
Type: biochemical
Source text: To determine the HECT E3 ligase selectivity of the compounds, a panel of biochemical HECT E3 ligase autoubiquitinylation assays was employed (Smurf-1, Smurf-2, WWP1, WWP2, ITCH, Nedd4, Nedd4L and E6AP). The conjugation of ubiquitin to a protein substrate is a multistep process. In an initial ATP-requiring step, a thioester bond is formed between the carboxyl terminus of ubiquitin and an internal cystein residue of the ubiquitin-activating enzyme (E1). Activated ubiquitin is then transferred to a specific cystein residue of an ubiquitin-conjugating enzyme (E2). E2s donate ubiquitin to a HECT E3 ligase (E3) from which it is transferred to the substrate protein. HECT E3 ligases can auto-ubiquitinylate. This event is detected in the TR-FRET (Time-Resolved Fluorescence Resonance Energy Transfer) assay used in this panel. The reaction mix contains E1, E2, tagged-E3, biotin-conjugated ubiquitin, the compound and ATP in a suitable buffer and is incubated for 45 minutes to allow auto-ubiquitinylation of the E3 ligase. To measure the extent of ubiquitinylated E3 ligase by TR-FRET, the donor fluorophore Europium cryptate (Eu3+ cryptate), conjugated to streptavidin which subsequently binds to biotinylated ubiquitin, and the modified allophycocyanin XL665 (HTRF® primary acceptor fluorophore) coupled to a tag-specific antibody (HA, His or GST), which recognizes the respective E3 ligase fusion proteins, are added after the reaction is complete. When these two fluorophores are brought together by a biomolecular interaction (in this case ubiquitinylation of the E3 ligase), a portion of the energy captured by the Cryptate during excitation is released through fluorescence emission at 620 nm, while the remaining energy is transferred to XL665. This energy is then released by XL665 as specific fluorescence at 665 nm. Light at 665 nm is emitted only through FRET with Europium.
Test and reference compounds are prepared at 180× [final] in 90% DMSO, and diluted 1:3 in 90% DMSO.
For the biochemical assay panel, 50 nl of the test compounds, reference compounds and buffer/DMSO control are transferred to the respective wells of a 384-well white GREINER “SMALL VOLUME” PS plate. The assay panel is run at room temperature on a Biomek FX liquid handling workstation. To the assay plates containing 50 nl compound or control solutions in 90% DMSO, 4.5 ul of E3 ligase solution were added per well, followed by 4.5 ul of the pre-incubated E1/E2/Ub mix or the pre-diluted ubiquitin (LOW control). Plates are shaken vigorously after each addition. In this assay the compound concentrations range from 3 nM to 10 uM in an 8-point dose-response curve.
After 45 min of incubation the ubiquitinylation reactions were stopped by adding 4.5 ul 2 mM NEM, immediately followed by 4.5 ul of a detection solution including the XL665-labeled antibody and the streptavidin-coupled europium to give a total volume of 18 ul. After an incubation time of 45 min in the dark, the plates are transferred into the Pherastar fluorescence reader to measure the TR-FRET signal.

Smurf-1, sequence (Q9HCE7 whole entry): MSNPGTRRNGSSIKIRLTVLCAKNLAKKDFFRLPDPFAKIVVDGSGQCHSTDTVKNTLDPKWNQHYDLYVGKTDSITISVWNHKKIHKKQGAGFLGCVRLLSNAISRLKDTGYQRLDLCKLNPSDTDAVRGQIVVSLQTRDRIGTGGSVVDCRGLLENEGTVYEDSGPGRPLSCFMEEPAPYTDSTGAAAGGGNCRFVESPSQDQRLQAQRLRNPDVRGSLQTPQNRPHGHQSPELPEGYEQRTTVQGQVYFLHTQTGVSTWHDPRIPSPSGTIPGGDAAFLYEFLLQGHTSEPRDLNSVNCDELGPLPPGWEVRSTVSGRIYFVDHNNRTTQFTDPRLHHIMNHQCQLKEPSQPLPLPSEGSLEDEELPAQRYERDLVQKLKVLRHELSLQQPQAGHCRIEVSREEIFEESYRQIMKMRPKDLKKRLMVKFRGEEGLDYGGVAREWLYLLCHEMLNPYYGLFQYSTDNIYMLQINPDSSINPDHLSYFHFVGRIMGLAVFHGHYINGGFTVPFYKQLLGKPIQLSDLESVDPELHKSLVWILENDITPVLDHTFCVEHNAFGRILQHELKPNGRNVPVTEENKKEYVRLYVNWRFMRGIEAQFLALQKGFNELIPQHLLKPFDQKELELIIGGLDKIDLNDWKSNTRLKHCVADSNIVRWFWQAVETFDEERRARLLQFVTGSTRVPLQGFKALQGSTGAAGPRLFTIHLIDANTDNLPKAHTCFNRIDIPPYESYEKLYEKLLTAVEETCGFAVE

Row | IC50 [nM] | SMILES
1 | 5800 | Cc1c(C(=O)Nc2c(C)n(C)n(-c3ccccc3F)c2=O)nnn1-c1ccc(Cl)cc1Cl [Example 7, 1-(2,4-Dichlorophenyl)-N-(2-(2-fluorophenyl)-1,5-dimethyl-3-oxo-2,3-dihydro-1H-pyrazol-4-yl)-5-methyl-1H-1,2,3-triazole-4-carboxamide]
2 | 4400 | Cc1c(C(=O)Nc2c(C)n(C)n(-c3ccccc3F)c2=O)nnn1-c1ccc(OC(F)(F)F)cc1Cl [Example 9, 1-(2-Chloro-4-(trifluoromethoxy)phenyl)-N-(2-(2-fluorophenyl)-1,5-dimethyl-3-oxo-2,3-dihydro-1H-pyrazol-4-yl)-5-methyl-1H-1,2,3-triazole-4-carboxamide]
3 | 1000 | Cc1c(C(=O)Nc2c(C)n(C)n(-c3ccccc3F)c2=O)nnn1-c1ccc(C2CC2)cc1Cl [Example 11, 1-(2-Chloro-4-cyclopropylphenyl)-N-(2-(2-fluorophenyl)-1,5-dimethyl-3-oxo-2,3-dihydro-1H-pyrazol-4-yl)-5-methyl-1H-1,2,3-triazole-4-carboxamide]
4 | 3300 | Cc1c(C(=O)Nc2c(C)n(C)n(-c3ccccc3F)c2=O)nnn1-c1ccc(Cl)cc1C1CC1 [Example 13, 1-(4-Chloro-2-cyclopropylphenyl)-N-(2-(2-fluorophenyl)-1,5-dimethyl-3-oxo-2,3-dihydro-1H-pyrazol-4-yl)-5-methyl-1H-1,2,3-triazole-4-carboxamide]
5 | 2800 | Cc1c(C(=O)Nc2c(C)n(C)n(-c3ccccc3F)c2=O)nnn1-c1ccc(Cl)cc1 [Example 8, 1-(4-Chlorophenyl)-N-(2-(2-fluorophenyl)-1,5-dimethyl-3-oxo-2,3-dihydro-1H-pyrazol-4-yl)-5-methyl-1H-1,2,3-triazole-4-carboxamide]

The remaining lines, values behind:

Row | SMILES | IC50 [nM]
6 | Cc1c(C(=O)Nc2c(C)n(C)n(C3CCCCC3)c2=O)nnn1-c1ccc(F)cc1C1CC1 [Example 15, N-(2-Cyclohexyl-1,5-dimethyl-3-oxo-2,3-dihydro-1H-pyrazol-4-yl)-1-(2-cyclopropyl-4-fluorophenyl)-5-methyl-1H-1,2,3-triazole-4-carboxamide] | 4500
7 | Cc1c(C(=O)Nc2c(C)n(C)n(C3CCCCC3)c2=O)nnn1-c1ccc(OC(F)(F)F)cc1Cl [Example 5, 1-(2-Chloro-4-(trifluoromethoxy)phenyl)-N-(2-cyclohexyl-1,5-dimethyl-3-oxo-2,3-dihydro-1H-pyrazol-4-yl)-5-methyl-1H-1,2,3-triazole-4-carboxamide] | 550
8 | COc1ccc(-n2nnc(C(=O)Nc3c(C)n(C)n(C4CCCCC4)c3=O)c2C)c(Cl)c1 [Example 1, 1-(2-Chloro-4-methoxyphenyl)-N-(2-cyclohexyl-1,5-dimethyl-3-oxo-2,3-dihydro-1H-pyrazol-4-yl)-5-methyl-1H-1,2,3-triazole-4-carboxamide] | 440
9 | [2H]C([2H])([2H])n1c(C)c(NC(=O)c2nnn(-c3ccc(C4CC4)cc3Cl)c2C)c(=O)n1C1CCCCC1 [Example 12, 1-(2-Chloro-4-cyclopropylphenyl)-N-(2-cyclohexyl-1-methyl-d3,5-methyl-3-oxo-2,3-dihydro-1H-pyrazol-4-yl)-5-methyl-1H-1,2,3-triazole-4-carboxamide] | 98
10 | Cc1c(C(=O)Nc2c(C)n(C)n(C3CCCCC3)c2=O)nnn1-c1ccc(Cl)cc1C1CC1 [Example 14, 1-(4-Chloro-2-cyclopropylphenyl)-N-(2-cyclohexyl-1,5-dimethyl-3-oxo-2,3-dihydro-1H-pyrazol-4-yl)-5-methyl-1H-1,2,3-triazole-4-carboxamide] | 230
11 | Cc1c(C(=O)Nc2c(C)n(C)n(C3CCCCC3)c2=O)nnn1-c1ccc(Cl)cc1 [Example 6, 1-(4-Chlorophenyl)-N-(2-cyclohexyl-1,5-dimethyl-3-oxo-2,3-dihydro-1H-pyrazol-4-yl)-5-methyl-1H-1,2,3-triazole-4-carboxamide] | 8200
12 | Cc1c(C(=O)Nc2c(C)n(C)n(C3CCCCC3)c2=O)nnn1-c1ccc(Cl)cc1Cl [Example 2, N-(2-Cyclohexyl-1,5-dimethyl-3-oxo-2,3-dihydro-1H-pyrazol-4-yl)-1-(2,4-dichlorophenyl)-5-methyl-1H-1,2,3-triazole-4-carboxamide] | 570
13 | COc1ccc(-n2nnc(C(=O)Nc3c(C)n(C)n(C4CCCCC4)c3=O)c2C)c(C(F)(F)F)c1 [Example 3, N-(2-Cyclohexyl-1,5-dimethyl-3-oxo-2,3-dihydro-1H-pyrazol-4-yl)-1-(4-methoxy-2-(trifluoromethyl)phenyl)-5-methyl-1H-1,2,3-triazole-4-carboxamide] | 890
14 | COc1ccc(-n2nnc(C(=O)Nc3c(C)n(C)n(C4CCCCC4)c3=O)c2C)cc1 [Example 17, N-(2-Cyclohexyl-1,5-dimethyl-3-oxo-2,3-dihydro-1H-pyrazol-4-yl)-1-(4-methoxyphenyl)-5-methyl-1H-1,2,3-triazole-4-carboxamide] | 3100
15 | Cc1c(NC(=O)c2nnn3c2CCCc2cc(OC(F)(F)F)ccc2-3)c(=O)n(C2CCCCC2)n1C [Example 16, N-(2-Cyclohexyl-1,5-dimethyl-3-oxo-2,3-dihydro-1H-pyrazol-4-yl)-8-(trifluoromethoxy)-5,6-dihydro-4H-benzo[f][1,2,3]triazolo[1,5-a]azepine-3-carboxamide] | 55
16 | Cc1c(C(=O)Nc2c(C)n(C)n(C3CCCCC3)c2=O)nnn1-c1ccc(C2CC2)cc1Cl [Example 10, 1-(2-Chloro-4-cyclopropylphenyl)-N-(2-cyclohexyl-1,5-dimethyl-3-oxo-2,3-dihydro-1H-pyrazol-4-yl)-5-methyl-1H-1,2,3-triazole-4-carboxamide] | 92
